Measured values: ChEMBL document CHEMBL1159261, “New bioactive monotetrahydrofuran Annonaceous acetogenins, annomuricin C and muricatocin C, from the leaves of Annona muricata” (J Nat Prod, 1995)
In brackets after ≈: the same amount, converted by molar mass.

Legend:
[1] = Toxicity against brine shrimp; type: organism-based; settings: artemia, in vivo; read-out: LD50 (the source's name)
[2] = test system: HT-29; assay: Cytotoxicity against human HT-29 cells after 7 days by MTT assay; type: functional; settings: HT-29, 168 h, read-out: ED50 (the source's name)
[3] = test system: A549; assay: Cytotoxicity against human A549 cells after 7 days by MTT assay; type: functional; settings: A549, 168 h, read-out: ED50 (the source's name)
[4] = test system: MCF7; assay: Cytotoxicity against human MCF7 cells after 7 days by MTT assay; type: functional; settings: MCF7, 168 h, read-out: ED50 (the source's name)

Structure (SMILES)	LC50 [1] [µg/mL]	EC50 [2] [µg/mL]	EC50 [3] [µg/mL]	EC50 [4] [µg/mL]
CCCCCCCCCCCC[C@@H](O)[C@H]1CC[C@H]([C@H](O)CCC[C@@H]2OC(C)(C)O[C@@H]2CCCCC[C@@H](O)CC2=C[C@H](C)OC2=O)O1	0.235 (≈ 0.36 µM)	1.41 (≈ 2.16 µM)	0.0698 (≈ 0.107 µM)	0.00481 (≈ 0.00737 µM)
CCCCCCCCCCCC[C@@H](O)[C@H]1CC[C@H]([C@H](O)CC[C@@H]2C[C@@H](CCCCC[C@@H](O)CC3=C[C@H](C)OC3=O)OC(C)(C)O2)O1	0.189 (≈ 0.289 µM)	0.261 (≈ 0.4 µM)	0.00376 (≈ 0.00576 µM)	0.00398 (≈ 0.0061 µM)
CCCCCCCCCCCC[C@@H](O)[C@H]1CC[C@H]([C@H](O)CCC[C@H](O)[C@@H](O)CCCCC[C@@H](O)CC2=C[C@H](C)OC2=O)O1 [ANNOMURICIN C]	0.613 (≈ 1 µM)	1.54 (≈ 2.51 µM)	0.308 (≈ 0.503 µM)	0.228 (≈ 0.372 µM)
COc1cccc2c1C(=O)c1c(O)c3c(c(O)c1C2=O)C[C@@](O)(C(=O)CO)C[C@@H]3O[C@H]1C[C@H](N)[C@H](O)[C@H](C)O1 [DOXORUBICIN]	–	0.0348 (≈ 0.064 µM)	–	0.106 (≈ 0.195 µM)
CCCCCCCCCCCC[C@@H](O)[C@H]1CC[C@H]([C@H](O)CC[C@@H](O)C[C@H](O)CCCCC[C@@H](O)CC2=C[C@H](C)OC2=O)O1 [MURICATOCIN C]	0.604 (≈ 0.985 µM)	1.48 (≈ 2.41 µM)	0.0909 (≈ 0.148 µM)	0.0645 (≈ 0.105 µM)
